Experimental data from ChEMBL document CHEMBL3763078, “Cytotoxicity and apoptotic activity of novel organobismuth(V) and organoantimony(V) complexes in different cancer cell lines” (Eur J Med Chem, 2016).

What was measured:
[1] = system: K562; assay: Selectivity index, ratio of IC50 for mouse L929 cells to IC50 for human K562 cells; type: functional
[2] = system: B16-F10; assay: Selectivity index, ratio of IC50 for mouse Melan-a cells to IC50 for mouse B16F10 cells; type: functional
[3] = system: B16-F10; assay: Selectivity index, ratio of IC50 for mouse L929 cells to IC50 for mouse B16F10 cells; type: functional
[4] = system: K562; assay: Selectivity index, ratio of IC50 for mouse Melan-a cells to IC50 for human K562 cells; type: functional
[5] = system: K562; assay: Cytotoxicity against human K562 cells assessed as cell viability after 72 hrs by tryphan blue assay; type: functional, cell-based
[6] = Cytotoxicity against mouse B16F10 cells assessed as cell viability after 72 hrs by MTT assay; type: functional, cell-based, B16-F10
[7] = system: L929; assay: Cytotoxicity against mouse L929 cells assessed as cell viability after 72 hrs by MTT assay; type: cell-based
[8] = Cytotoxicity against mouse Melan-a cells assessed as cell viability after 72 hrs by MTT assay; type: cell-based
[9] = system: B16-F10; assay: Induction of apoptosis in mouse B16F10 cells at 0.1 uM after 48 hrs by annexin V-FITC/propidium iodide staining-based flow cytometric analysis relative to control; type: functional
[10] = system: B16-F10; assay: Induction of apoptosis in mouse B16F10 cells assessed as viable cells at 0.1 uM after 48 hrs by annexin V-FITC/propidium iodide staining-based flow cytometric analysis (reference value: 98.4%); type: functional; settings: B16-F10, 48 h, read-out: Activity
[11] = system: B16-F10; assay: Induction of apoptosis in mouse B16F10 cells assessed as late apoptotic cells at 0.1 uM after 48 hrs by annexin V-FITC/propidium iodide staining-based flow cytometric analysis (reference value: 0.450%); type: functional
[12] = system: B16-F10; assay: Induction of apoptosis in mouse B16F10 cells assessed as early apoptotic cells at 0.1 uM after 48 hrs by annexin V-FITC/propidium iodide staining-based flow cytometric analysis (reference value: 0.087%); type: functional
[13] = system: B16-F10; assay: Induction of apoptosis in mouse B16F10 cells assessed as dead cells at 0.1 uM after 48 hrs by annexin V-FITC/propidium iodide staining-based flow cytometric analysis (reference value: 1.11%); type: functional
[14] = Induction of apoptosis in mouse thymocytes at 30 uM after 3 hrs by annexin V-FITC/ethidium bromide staining-based flow cytometric analysis relative to control; type: cell-based; settings: thymocyte
[15] = system: HL-60; assay: Induction of apoptosis in human HL60 cells assessed as increase in sub-diploid DNA content at 0.44 uM after 12 hrs by propidium iodide staining-based flow cytometric analysis relative to control; type: functional, cell-based
[16] = system: HL-60; assay: Induction of apoptosis in human HL60 cells assessed as increase in sub-diploid DNA content at 0.44 uM after 6 hrs by propidium iodide staining-based flow cytometric analysis relative to control; type: functional, cell-based
[17] = system: B16-F10; assay: Induction of apoptosis in mouse B16F10 cells assessed as late apoptotic cells at 1 uM after 48 hrs by annexin V-FITC/propidium iodide staining-based flow cytometric analysis (reference value: 0.450%); type: functional, cell-based
[18] = system: B16-F10; assay: Induction of apoptosis in mouse B16F10 cells at 100 uM after 48 hrs by annexin V-FITC/propidium iodide staining-based flow cytometric analysis relative to control; type: functional, cell-based
[19] = system: B16-F10; assay: Induction of apoptosis in mouse B16F10 cells assessed as increase in sub-diploid DNA content at 10 uM after 24 hrs by propidium iodide staining-based flow cytometric analysis relative to staurosporin; type: functional, cell-based
[20] = system: B16-F10; assay: Induction of apoptosis in mouse B16F10 cells assessed as viable cells at 100 uM after 48 hrs by annexin V-FITC/propidium iodide staining-based flow cytometric analysis (reference value: 98.4%); type: functional, cell-based
[21] = system: B16-F10; assay: Induction of apoptosis in mouse B16F10 cells assessed as increase in sub-diploid DNA content at 100 uM after 24 hrs by propidium iodide staining-based flow cytometric analysis relative to staurosporin; type: functional, cell-based
[22] = system: B16-F10; assay: Induction of apoptosis in mouse B16F10 cells assessed as viable cells at 10 uM after 48 hrs by annexin V-FITC/propidium iodide staining-based flow cytometric analysis (reference value: 98.4%); type: functional, cell-based
[23] = system: B16-F10; assay: Induction of apoptosis in mouse B16F10 cells assessed as late apoptotic cells at 100 uM after 48 hrs by annexin V-FITC/propidium iodide staining-based flow cytometric analysis (reference value: 0.450%); type: functional, cell-based
[24] = system: B16-F10; assay: Induction of apoptosis in mouse B16F10 cells assessed as early apoptotic cells at 100 uM after 48 hrs by annexin V-FITC/propidium iodide staining-based flow cytometric analysis (reference value: 0.087%); type: functional, cell-based
[25] = system: B16-F10; assay: Induction of apoptosis in mouse B16F10 cells at 1 to 100 uM after 48 hrs by annexin V-FITC/propidium iodide staining-based flow cytometric analysis relative to staurosporine; type: functional, cell-based
[26] = system: B16-F10; assay: Induction of apoptosis in mouse B16F10 cells assessed as dead cells at 10 uM after 48 hrs by annexin V-FITC/propidium iodide staining-based flow cytometric analysis (reference value: 1.11%); type: functional, cell-based
[27] = system: B16-F10; assay: Induction of apoptosis in mouse B16F10 cells assessed as dead cells at 100 uM after 48 hrs by annexin V-FITC/propidium iodide staining-based flow cytometric analysis (reference value: 1.11%); type: functional, cell-based
[28] = system: B16-F10; assay: Induction of apoptosis in mouse B16F10 cells assessed as increase in sub-diploid DNA content at 100 uM after 48 hrs by propidium iodide staining-based flow cytometric analysis relative to control; type: functional, cell-based
[29] = system: B16-F10; assay: Induction of apoptosis in mouse B16F10 cells assessed as dead cells at 1 uM after 48 hrs by annexin V-FITC/propidium iodide staining-based flow cytometric analysis (reference value: 1.11%); type: functional, cell-based
[30] = system: B16-F10; assay: Induction of apoptosis in mouse B16F10 cells assessed as viable cells at 1 uM after 48 hrs by annexin V-FITC/propidium iodide staining-based flow cytometric analysis (reference value: 98.4%); type: functional, cell-based
[31] = system: B16-F10; assay: Induction of apoptosis in mouse B16F10 cells assessed as increase in sub-diploid DNA content at 10 uM after 48 hrs by propidium iodide staining-based flow cytometric analysis relative to control; type: functional, cell-based
[32] = system: B16-F10; assay: Induction of apoptosis in mouse B16F10 cells at 10 uM after 48 hrs by annexin V-FITC/propidium iodide staining-based flow cytometric analysis relative to control; type: functional, cell-based
[33] = system: B16-F10; assay: Induction of apoptosis in mouse B16F10 cells assessed as early apoptotic cells at 1 uM after 48 hrs by annexin V-FITC/propidium iodide staining-based flow cytometric analysis (reference value: 0.087%); type: functional, cell-based
[34] = system: B16-F10; assay: Induction of apoptosis in mouse B16F10 cells assessed as late apoptotic cells at 10 uM after 48 hrs by annexin V-FITC/propidium iodide staining-based flow cytometric analysis (reference value: 0.450%); type: functional, cell-based
[35] = system: B16-F10; assay: Induction of apoptosis in mouse B16F10 cells assessed as early apoptotic cells at 10 uM after 48 hrs by annexin V-FITC/propidium iodide staining-based flow cytometric analysis (reference value: 0.087%); type: functional, cell-based
[36] = system: B16-F10; assay: Induction of apoptosis in mouse B16F10 cells at 1 uM after 48 hrs by annexin V-FITC/propidium iodide staining-based flow cytometric analysis relative to control; type: functional, cell-based
[37] = system: B16-F10; assay: Induction of apoptosis in mouse B16F10 cells assessed as increase in sub-diploid DNA content at 100 uM after 24 hrs by propidium iodide staining-based flow cytometric analysis relative to control; type: functional, cell-based
[38] = system: B16-F10; assay: Induction of apoptosis in mouse B16F10 cells assessed as increase in sub-diploid DNA content at 10 uM after 24 hrs by propidium iodide staining-based flow cytometric analysis relative to control; type: functional, cell-based

## bis-(4-acetylbenzoato)triphenylantimony(V)
[1]
  Ratio IC50: 3.4
[2]
  Ratio IC50: 6.6
[3]
  Ratio IC50: 3.1
[4]
  Ratio IC50: 7.2

## DICHLOROTRIPHENYLBISMUTHANE
[5]; k562
  IC50: 31.1 µM
[6]; b16-f10
  IC50: 19.2 µM
[7]; l929
  IC50: 154 µM
[8]; melan-a
  IC50: 130 µM

## [sequence]
[1]
  Ratio IC50: 5
[2]
  Ratio IC50: 6.7
[3]
  Ratio IC50: 8
[4]
  Ratio IC50: 4.1

## Bis-(5-acetylsalicylato)triphenylantimony(V) chloroform solvate
[1]
  Ratio IC50: 7.9
[2]
  Ratio IC50: 1.6
[3]
  Ratio IC50: 2.2
[4]
  Ratio IC50: 5.6

## CN[C@@H]1C[C@H]2O[C@@](C)([C@@H]1OC)n1c3ccccc3c3c4c(c5c6ccccc6n2c5c31)C(=O)NC4 [STAUROSPORINE]
[9]
  fold change (FC): 21
[10]
  viability at 0.1 µM: 33.9%
[11]
  Activity: 43.5%
[12]
  Activity: 0.461%
[13]
  Activity: 22.2%

## CC(=O)c1ccccc1C(=O)O
[1]
  Ratio IC50: <1
[2]
  Ratio IC50: <1
[5]; Homo sapiens, K562, 72 h
  IC50: 502 µM
[6]; Mus musculus, B16-F10, 72 h
  IC50: 852 µM
[3]
  Ratio IC50: <1
[4]
  Ratio IC50: 1.5
[7]; Mus musculus, L929, 72 h
  IC50: 474 µM
[8]; Mus musculus, Melan-a, 72 h
  IC50: 775 µM

## TRIPHENYLBISMUTHINE
[14]
  fold change (FC): 5

## triphenylantimony(V) dichloride
[1]
  Ratio IC50: 2.6
[2]
  Ratio IC50: 6.7
[3]
  Ratio IC50: 1.9
[4]
  Ratio IC50: 2.6

## Bis-(4-acetylbenzoato)triphenylbismuth(V)
[1]
  Ratio IC50: 1
[2]
  Ratio IC50: 12.7
[3]
  Ratio IC50: 1.8
[4]
  Ratio IC50: 7.4

## Bi-chlorodibenzo[c,f][1,5]thiabismocine
[15]
  Activity: 80%
[16]
  fold change (FC): 13

## Bis-(2-acetylbenzoato)triphenylbismuth(V)
[17]
  Activity: 14.6%
[18]
  fold change (FC): 34
[19]
  fold change (FC): 18
[1]
  Ratio IC50: 24.6
[2]
  Ratio IC50: 13
[20]
  Activity: 1.57%
[21]
  fold change (FC): 70
[22]
  Activity: 5.22%
[23]
  Activity: 90.1%
[24]
  Activity: 1.25%
[25]
  fold change (FC): 1.5
[3]
  Ratio IC50: 6.1
[26]
  Activity: 10.7%
[4]
  Ratio IC50: 52.4
[27]
  Activity: 7.1%
[28]
  fold change (FC): 256
[29]
  Activity: 3.89%
[30]
  Activity: 66.1%
[31]
  fold change (FC): 129
[32]
  fold change (FC): 33
[33]
  Activity: 15.4%
[34]
  Activity: 77.3%
[35]
  Activity: 6.81%
[36]
  fold change (FC): 8
[37]
  fold change (FC): 70
[38]
  fold change (FC): 18

## CC(=O)c1ccc(C(=O)O)cc1
[1]
  Ratio IC50: <1
[2]
  Ratio IC50: <1
[5]; Homo sapiens, K562, 72 h
  IC50: < 1000 µM
[6]; Mus musculus, B16-F10, 72 h
  IC50: 176 µM
[3]
  Ratio IC50: 1.8
[4]
  Ratio IC50: <1
[7]; Mus musculus, L929, 72 h
  IC50: 331 µM

## CC(=O)c1ccc(O)c(C(=O)O)c1
[1]
  Ratio IC50: <1
[2]
  Ratio IC50: <1
[6]; Mus musculus, B16-F10, 72 h
  IC50: 4880 µM
[3]
  Ratio IC50: <1
[4]
  Ratio IC50: <1
[7]; Mus musculus, L929, 72 h
  IC50: 306 µM
